Results reported in ChEMBL document CHEMBL5729666, “Substituted [1,2,4]triazolo[4,3-a]pyrazines as modulators of sodium channel activity” (2023).

Target: T1, Cytochrome P450 1A2 (Homo sapiens, UniProt P05177)
T1 sequence (P05177 whole entry): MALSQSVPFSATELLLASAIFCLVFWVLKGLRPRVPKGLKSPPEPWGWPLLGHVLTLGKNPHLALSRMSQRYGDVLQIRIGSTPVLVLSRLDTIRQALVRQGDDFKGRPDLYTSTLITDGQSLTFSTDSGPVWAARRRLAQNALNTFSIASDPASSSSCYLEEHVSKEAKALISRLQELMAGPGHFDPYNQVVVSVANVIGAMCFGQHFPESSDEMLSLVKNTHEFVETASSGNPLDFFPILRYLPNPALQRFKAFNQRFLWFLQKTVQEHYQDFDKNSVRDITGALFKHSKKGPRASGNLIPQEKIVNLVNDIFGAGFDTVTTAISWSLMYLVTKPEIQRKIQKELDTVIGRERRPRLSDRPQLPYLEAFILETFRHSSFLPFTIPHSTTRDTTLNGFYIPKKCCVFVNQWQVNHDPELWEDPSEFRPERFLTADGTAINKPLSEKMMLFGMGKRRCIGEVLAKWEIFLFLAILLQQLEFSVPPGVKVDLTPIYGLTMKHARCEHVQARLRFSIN
Assay: CYP1A2 Inhibition Assay: CYP1A2 Inhibition in Human Liver Microsomes. Pooled human liver microsomes were incubated with individual CYP, CYP1A2, isozyme-specific marker substrate (Phenacetin) in the presence of test compound at various concentrations (0.05, 0.15, 0.5, 1.5, 5, 15, 50 uM). The specific marker metabolites are measured with LC/MS/MS. The remaining enzymatic activities and inhibitory potency IC50 are determined. Procedure: Microsomes are removed out of the −80° C. freezer to thaw on ice and 20 μL of the substrates solution added to the corresponding wells. Then 20 μL PB was added to blank wells and 2 μL of the test compounds and positive control working solution added to the corresponding wells. 2 μL of solvent was added to No Inhibitor wells and Blank wells. Then 158 μL of the HLM working solution was added to all wells of the incubation plate. The plate was pre-warmed for about 10 min using a 37° C. water bath. Then 20 μL of the NADPH cofactor solution was added to all incubation wells, mixed and incubated for 10 minutes at 37° C. water bath. The reaction is terminated by adding 400 μL cold stop solution (200 ng/mL Tolbutamide and 200 ng/mL Labetalol in ACN). The samples were centrifuged at 4000 rpm for 20 minutes to precipitate protein. Finally 200 μL of the supernatant was transferred to 100 μL HPLC water, shaken for 10 min and analyzed by LC/MS/MS.

With `FC(F)(F)Oc1ccc(-c2ccc3nnc(C(F)(F)Cl)n3n2)cc1` as the compound, how does the IC50 read?
Its IC50 is under 1 µM.

For `O=C(NNc1cnc(-c2ccc(OC(F)(F)F)cc2)cn1)C1(F)CC1`, which IC50 is on record?
The IC50 was “in the range around 8 µM”.
